Reference: patent US20230310387A1, “Reduced Dose Metaxalone Formulations” (Primus Pharmaceuticals, Inc., priority 2023, published 2023)

How the values were obtained:
[1] = Particle Size Analysis by Sieve Method; assay type: physicochemical; conditions: non-micronized metaxalone
Description: The Sieve Method refers to the method for particle size analysis described in American Society for Testing and Materials (ASTM) standard C 136 (in effect on Jan. 1, 2019). In the method a representative weighed sample is poured into the top sieve which has the largest screen openings. Each lower sieve in the column has smaller openings than the one above. At the base is a round pan, called the receiver. The column is typically placed in a mechanical shaker. such as the sonic sifter available from Endecotts (London, UK). See Endecotts website at https://www.endecotts.com/products/sieve-shakers/sonic-sifter/product-specifications/. The shaker shakes the column, usually for some fixed amount of time. After the shaking is complete the material on each sieve is weighed. The mass of the sample of each sieve is then divided by the total mass to give a percentage retained on each sieve. The size of the average particle on each sieve is then analyzed to get a cut-off point or specific size range, which is then captured on a screen. Tables 2a and 2b describes representative particle sizes for the micronized and non-micronized metaxalone particles used in the formulation of Table 1. [table]

[2] = Particle Size Analysis by Malvern Method; assay type: physicochemical; conditions: micronized metaxalone
Description: In one subembodiment, when the formulation is characterized based on metaxalone particle size, at least 50%, 70%, or 90% of the micronized particles of metaxalone are smaller than 200, 100, or 75 microns when tested according to the Malvern Method (i.e. laser diffraction). Alternatively or in addition, at least 30%, 40%, or 50% of the micronized particles are less than 50, 30, or 20 microns. when tested according to the Malvern Method. Tables 2a and 2b describes representative particle sizes for the micronized and non-micronized metaxalone particles used in the formulation of Table 1. [table]

SMILES | % Retained on Sieve # 30 [1] [%] | % Retained on Sieve # 120 [1] [%] | % Retained on Sieve # 325 [1] [%] | 10% of the Particles (d10) [2] [µ] | 50% of the Particles (d50) [2] [µ] | 90% of the Particles (d90) [2] [µ]
Cc1cc(C)cc(OCC2CNC(=O)O2)c1 (single isomer, unassigned) [Lot2d, metaxalone] | 1 | 61 | 28 |  |  | 
Cc1cc(C)cc(OCC2CNC(=O)O2)c1 (single isomer, unassigned) [Lot2c, metaxalone] | 1 | 63 | 29 |  |  | 
Cc1cc(C)cc(OCC2CNC(=O)O2)c1 (stereo not drawn) [Lot2a, metaxalone] |  |  |  | 0.81 | 10.11 | 49.91
Cc1cc(C)cc(OCC2CNC(=O)O2)c1 (single isomer, unassigned) [Lot2b, metaxalone] | 1 | 49 | 30 |  |  | 
